Activity calls are given as the source filed them.

Assay [1] deals with Cytochrome P450 2D6 (Homo sapiens, UniProt P10635).
Assay [2] concerns the target T1, Heat shock factor protein 1 (Mus musculus, UniProt P38532).
T1 sequence (P38532 whole entry): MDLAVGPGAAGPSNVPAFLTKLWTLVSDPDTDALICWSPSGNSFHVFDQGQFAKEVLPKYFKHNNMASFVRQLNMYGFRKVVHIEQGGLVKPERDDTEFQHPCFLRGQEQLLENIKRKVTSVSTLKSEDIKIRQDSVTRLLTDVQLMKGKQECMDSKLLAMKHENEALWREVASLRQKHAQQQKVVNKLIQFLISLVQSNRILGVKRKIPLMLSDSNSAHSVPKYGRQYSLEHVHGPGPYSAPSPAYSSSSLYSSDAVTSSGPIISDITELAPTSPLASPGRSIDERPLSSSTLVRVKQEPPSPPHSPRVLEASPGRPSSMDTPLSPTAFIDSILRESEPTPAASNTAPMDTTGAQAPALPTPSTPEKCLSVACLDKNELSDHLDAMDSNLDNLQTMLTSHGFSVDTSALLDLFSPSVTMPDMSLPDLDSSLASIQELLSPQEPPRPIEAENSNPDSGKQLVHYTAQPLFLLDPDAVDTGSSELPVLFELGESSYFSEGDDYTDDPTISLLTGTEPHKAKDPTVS
Nature of the assay: enhancement of HSF1-driven luciferase signal – cell-based, NIH3T3, luminescence, dose retest, confirmation (AID 435004).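 Further: stress induced by proteasome inhibitor MG132 added 30 min after compound; luciferase reporter driven by HSF1 response element in NIH3T3 cells; actives raise luminescence as potentiators of the MG132 stress response.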 The class given is functional.

Assay [3] concerns the target T1, Heat shock factor protein 1. Nature of the assay: decrease of HSF1-responsive luciferase luminescence – cell-based, NIH3T3, dose retest, confirmation (AID 2382).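 Further: NIH3T3 fibroblasts with HSF1-driven luciferase reporter stressed by proteasome inhibitor MG132; luminescence from HSF1-driven luciferase expression after 8 hours of MG132 stress.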 In kind it is functional.
The test system of assay [4] is Streptococcus sp. 'group A'. Nature of the assay: Streptococcus pyogenes SK(-)GAS viability under kanamycin – luminescence, BacTiterGlo, confirmation, counter-screen for streptokinase expression inhibitor project, dose response (AID 1900). The class given is functional, organism-based. As to conditions: Streptococcus sp. 'group A'.
Assay [5] concerns Streptococcus. Nature of the assay: GAS UMAA2166 growth inhibition – luminescence, BacTiterGlo, counter-screen for streptokinase expression inhibitor project, dose response (AID 1915).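 Further: potency for reduction of bacterial viability or growth.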 In kind it is functional, organism-based. As to conditions: Streptococcus.
Assay [6] deals with T2, Corticotropin-releasing factor receptor 2/Corticotropin-releasing factor-binding protein (Homo sapiens, UniProt P24387+Q13324).
T2 sequence (Q13324 whole entry): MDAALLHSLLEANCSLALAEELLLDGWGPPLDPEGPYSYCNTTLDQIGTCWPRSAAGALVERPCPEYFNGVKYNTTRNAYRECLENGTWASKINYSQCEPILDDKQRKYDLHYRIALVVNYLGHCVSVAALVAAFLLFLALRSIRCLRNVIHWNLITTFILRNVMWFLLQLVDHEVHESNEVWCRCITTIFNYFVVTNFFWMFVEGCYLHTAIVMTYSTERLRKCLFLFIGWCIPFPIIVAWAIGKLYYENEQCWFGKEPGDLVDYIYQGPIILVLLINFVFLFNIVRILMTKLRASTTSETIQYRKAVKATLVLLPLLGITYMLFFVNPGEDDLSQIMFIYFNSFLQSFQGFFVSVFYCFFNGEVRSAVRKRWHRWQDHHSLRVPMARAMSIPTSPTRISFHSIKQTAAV
T2 sequence (P24387 whole entry): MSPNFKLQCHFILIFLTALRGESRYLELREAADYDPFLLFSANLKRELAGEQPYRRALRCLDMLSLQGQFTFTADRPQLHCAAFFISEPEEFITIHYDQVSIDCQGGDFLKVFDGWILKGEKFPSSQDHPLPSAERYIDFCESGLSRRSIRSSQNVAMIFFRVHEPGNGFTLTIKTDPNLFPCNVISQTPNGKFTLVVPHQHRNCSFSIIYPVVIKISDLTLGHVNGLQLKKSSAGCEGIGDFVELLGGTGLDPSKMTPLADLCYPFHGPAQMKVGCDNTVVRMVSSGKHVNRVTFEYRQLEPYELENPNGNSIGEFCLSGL
Nature of the assay: activators of CRF receptor 2 with binding protein – uHTS hits, confirmation (AID 602473). The class given is functional. The settings on record: read-out: EC50_Mean.

Assay [7] concerns the target Cytochrome P450 2C19 (Homo sapiens, UniProt P33261). Nature of the assay: Cytochrome panel assay with activity outcomes. Panel member name: p450-cyp2c19 Compounds with AC50 equal or less than 10 uM are considered active. The class given is functional. As to conditions: read-out: AC50.
Assay [8] deals with Cytochrome P450 2C9 (Homo sapiens, UniProt P11712).
Sequence of Cytochrome P450 2C9 (P11712 whole entry): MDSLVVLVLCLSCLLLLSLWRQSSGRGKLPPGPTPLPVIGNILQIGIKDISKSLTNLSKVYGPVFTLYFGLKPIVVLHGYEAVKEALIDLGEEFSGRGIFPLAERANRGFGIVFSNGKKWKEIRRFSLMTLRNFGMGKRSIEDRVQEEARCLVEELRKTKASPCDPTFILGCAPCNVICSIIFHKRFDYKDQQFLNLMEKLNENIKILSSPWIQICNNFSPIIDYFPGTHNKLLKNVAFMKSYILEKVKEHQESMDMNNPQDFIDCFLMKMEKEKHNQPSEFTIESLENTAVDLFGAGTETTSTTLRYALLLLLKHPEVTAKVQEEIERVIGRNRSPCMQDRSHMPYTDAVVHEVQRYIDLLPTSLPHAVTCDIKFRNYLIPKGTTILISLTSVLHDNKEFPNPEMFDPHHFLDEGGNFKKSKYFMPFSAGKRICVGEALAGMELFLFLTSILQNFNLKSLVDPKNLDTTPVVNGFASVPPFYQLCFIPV
Assay [9] addresses Paired box protein Pax-8 (Homo sapiens, UniProt Q06710). Nature of the assay: PAX8 transcriptional activity inhibition in RMG-I – RMG-I cells, luciferase, cherry-pick, dose response (AID 687027).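 Further: luciferase reporter driven by Pax8 target thyroperoxidase promoter measured by SteadyGlo luminescence.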 In kind it is functional, cell-based.
In assay [10] the target is T3, Rac GTPase-activating protein 1 (Homo sapiens, UniProt Q9H0H5).
T3 sequence (Q9H0H5 whole entry): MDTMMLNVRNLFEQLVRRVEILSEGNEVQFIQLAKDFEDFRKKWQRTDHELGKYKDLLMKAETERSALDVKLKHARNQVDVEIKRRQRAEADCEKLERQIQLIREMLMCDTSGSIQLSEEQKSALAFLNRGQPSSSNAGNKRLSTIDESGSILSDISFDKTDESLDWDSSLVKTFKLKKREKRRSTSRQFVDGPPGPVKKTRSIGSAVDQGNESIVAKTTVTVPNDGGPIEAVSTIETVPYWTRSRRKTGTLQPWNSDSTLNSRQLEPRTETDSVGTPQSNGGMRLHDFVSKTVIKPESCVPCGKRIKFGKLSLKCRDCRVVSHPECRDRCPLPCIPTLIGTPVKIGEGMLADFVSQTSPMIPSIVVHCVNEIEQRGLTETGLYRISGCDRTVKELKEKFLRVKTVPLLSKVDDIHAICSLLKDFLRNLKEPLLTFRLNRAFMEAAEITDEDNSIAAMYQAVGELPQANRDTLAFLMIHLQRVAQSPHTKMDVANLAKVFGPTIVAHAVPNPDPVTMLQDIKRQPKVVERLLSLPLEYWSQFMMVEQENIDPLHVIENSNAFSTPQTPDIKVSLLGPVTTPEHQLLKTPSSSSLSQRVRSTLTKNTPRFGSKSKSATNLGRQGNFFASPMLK
Nature of the assay: blockers of MgcRacGAP-driven Rac1 GTP hydrolysis – biochemical, ADP Hunter fluorescence, primary and confirmatory, confirmation (AID 624330). In kind it is functional.

Sequence of Cytochrome P450 2D6 (P10635 whole entry): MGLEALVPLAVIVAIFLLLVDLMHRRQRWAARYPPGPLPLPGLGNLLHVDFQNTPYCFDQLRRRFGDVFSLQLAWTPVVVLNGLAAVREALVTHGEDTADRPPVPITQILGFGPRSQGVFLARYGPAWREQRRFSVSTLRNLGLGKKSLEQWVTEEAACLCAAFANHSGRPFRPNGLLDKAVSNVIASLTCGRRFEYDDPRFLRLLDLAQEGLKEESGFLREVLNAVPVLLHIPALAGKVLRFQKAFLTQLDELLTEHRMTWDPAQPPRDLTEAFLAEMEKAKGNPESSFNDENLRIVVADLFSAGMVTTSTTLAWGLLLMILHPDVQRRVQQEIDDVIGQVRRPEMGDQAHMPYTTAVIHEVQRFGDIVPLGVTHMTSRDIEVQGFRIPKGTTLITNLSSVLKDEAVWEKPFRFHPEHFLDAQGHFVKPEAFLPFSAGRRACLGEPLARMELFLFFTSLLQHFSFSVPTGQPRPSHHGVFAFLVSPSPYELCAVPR
Sequence of Paired box protein Pax-8 (Q06710 whole entry): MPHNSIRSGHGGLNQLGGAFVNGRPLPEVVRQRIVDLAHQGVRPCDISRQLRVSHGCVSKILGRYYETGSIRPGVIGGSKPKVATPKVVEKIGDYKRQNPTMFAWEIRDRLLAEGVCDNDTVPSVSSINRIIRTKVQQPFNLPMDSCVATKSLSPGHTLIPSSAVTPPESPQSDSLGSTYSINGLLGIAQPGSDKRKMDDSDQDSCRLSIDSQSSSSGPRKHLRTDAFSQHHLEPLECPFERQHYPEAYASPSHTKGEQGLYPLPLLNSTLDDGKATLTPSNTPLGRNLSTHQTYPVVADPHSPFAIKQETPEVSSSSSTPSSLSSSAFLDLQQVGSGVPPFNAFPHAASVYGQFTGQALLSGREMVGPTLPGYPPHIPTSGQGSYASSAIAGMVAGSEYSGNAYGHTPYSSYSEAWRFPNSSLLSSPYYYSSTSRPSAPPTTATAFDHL
Sequence of Cytochrome P450 2C19 (P33261 whole entry): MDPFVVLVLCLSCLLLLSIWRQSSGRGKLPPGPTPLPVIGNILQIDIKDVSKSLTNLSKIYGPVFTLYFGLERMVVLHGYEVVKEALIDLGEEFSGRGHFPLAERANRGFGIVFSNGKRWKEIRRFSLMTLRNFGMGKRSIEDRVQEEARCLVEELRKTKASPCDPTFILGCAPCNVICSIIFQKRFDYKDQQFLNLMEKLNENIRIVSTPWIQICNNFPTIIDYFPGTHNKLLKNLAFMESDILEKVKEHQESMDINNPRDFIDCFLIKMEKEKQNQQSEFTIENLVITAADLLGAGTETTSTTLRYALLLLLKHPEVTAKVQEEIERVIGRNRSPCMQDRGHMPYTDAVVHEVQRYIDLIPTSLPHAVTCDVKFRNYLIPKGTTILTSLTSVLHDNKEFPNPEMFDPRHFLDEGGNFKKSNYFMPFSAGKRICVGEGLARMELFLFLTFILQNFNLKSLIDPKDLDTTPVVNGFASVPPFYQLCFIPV

Take `COCCNc1ccnc(-c2ccccc2CN(C)C)n1`: the concentration at half-maximal activity (AC50) in assay [1] was 39.8 µM (inconclusive).

Turning to `C=CCn1c(=O)c2c3c(sc2n2c(Nc4ccccc4)nnc12)CCCC3`, the EC50 in assay [2] was > 260 µM (inactive).

With `N#C/C(=C/c1cc(Br)cs1)C(=O)NCC1CCCO1` (stereo not drawn), in assay [3], the EC50 is > 195 µM (not active).

In the case of `Cc1ccc2[nH]c(SCC(=O)c3ccc(Cl)s3)nc2c1`, the EC50 in assay [4] and in assay [5] was > 150 µM (not active) throughout.

As to `Cc1cccc(C)c1NC(=O)CN1C(=O)NC(C)(CCc2ccccc2)C1=O` (stereo not drawn), the EC50 in assay [3] is given as > 195 µM (not active).

For the compound `CC(=O)c1ccccc1NC(=O)C1C2CCC(O2)C1C(=O)O` (stereo not drawn), in [2], the EC50 is > 260 µM (inactive).

Take `Cc1ccc(N(C(=O)Cn2nnc(-c3ccc(F)cc3)n2)C(CC(C)C)C(=O)NCC2CCCO2)cc1` (stereo not drawn): the AC50 in assay [1] is 25.1 µM (inconclusive).

Turning to `Cc1nc([N+](=O)[O-])cn1-c1ccc(N)cc1`, in [3], the EC50 is > 195 µM (not active).

For the compound `Cc1nc2c(C(=O)N3CCOCC3)cnn2c(C)c1Cc1ccc(Cl)cc1`, in [1], the concentration at half-maximal activity (AC50) is 25.1 µM (inconclusive).

Turning to `CC(=O)Nc1ccc(NC(=O)CSc2cn(CC(=O)N3CCOCC3)c3ccccc23)cc1`, the EC50 in assay [3] is listed as > 195 µM (not active).

Consider `CS(=O)(=O)Nc1cccc(-c2cncnc2NCc2cccnc2)c1`, for which, in assay [1], the AC50 is 39.8 µM (inconclusive).

`O=C(NCc1ccccc1)[C@]1(C(F)(F)F)C[C@H](CCc2ccccc2)CCCO1`: the EC50 in assay [3] is > 195 µM (not active).

For the compound `O=C(CSCc1ccc(Br)cc1)N1CCCC1`, the EC50 in assay [2] was 108 µM (active).

For `CC(=O)c1cnn(-c2c(Cl)cc(Cl)cc2Cl)c1C`, the EC50 in assay [3] is > 195 µM (not active).

In the case of `CCN(CC)S(=O)(=O)c1cccc(-c2nnc(SCC(N)=O)n2CCc2ccccc2)c1`, in assay [3], the EC50 is > 195 µM (not active).

With `COC(=O)c1ccccc1N=C(S)N(Cc1ccc2c(c1)OCO2)Cc1cc2ccc(OC)cc2nc1O`, the EC50 in assay [2] is > 260 µM (inactive).

For the compound `Cn1cccc1C(=O)N1CCC[C@@]2(CCN(Cc3ccc(C#N)cc3)C2)C1`, the AC50 in assay [1] is 20 µM (inconclusive).

With `O=C(Cn1[nH]c(=O)c2ccccc2c1=O)OCC(=O)c1ccccc1Cl`, the EC50 in assay [3] was > 195 µM (not active).

Take `Cc1ccccc1NC(=O)COC(=O)c1ccc(S(C)(=O)=O)c([N+](=O)[O-])c1`: the EC50 in assay [3] was 6.14 µM (active).

Regarding `O=C(CN1C(=O)NC2(CCCc3ccccc32)C1=O)Nc1cccc(S(=O)(=O)N2CCCCC2)c1` (stereo not drawn), the EC50 in assay [2] is > 260 µM (inactive).

As to `Cc1c(N=C2N=C(NC(=O)c3ccc(F)cc3)c3ccccc32)c(=O)n(-c2ccccc2)n1C`, in assay [6], the EC50 was 15.6 µM (active).

Take `O[C@]1(c2ccccc2)c2ccccc2N=C2NCCN21`: in assay [1], the AC50 was 2.51 µM (inconclusive).

In the case of `CCc1c2c(nc3c(C(C)C)cccc13)-c1cccc(=O)n1C2`, the half-maximal activity concentration (AC50) in assay [7] is 20 µM (inconclusive); in assay [1], 39.8 µM (inconclusive).

On to `CCCn1nc(C(=O)NCC(C)(C)N2CCOCC2)c2ccccc2c1=O`, for which the AC50 in assay [1] was 3.98 µM (inconclusive); in assay [8] it was 39.8 µM (inconclusive).

In the case of `CCOc1cccc(C2NCc3ccccc3-n3cccc32)c1O` (stereo not drawn), in assay [2], the EC50 is > 260 µM (inactive).

As for `Cc1ccc2nc(-c3cccnc3)oc2c1`, the AC50 in assay [7] is 28.2 µM (inconclusive); in [1], 5.62 µM (inconclusive).

On to `CC(C)(C)OC(=O)NCCCC[C@H](NC(=O)c1[nH]cnc1C(=O)N[C@@H](Cc1ccccc1)C(=O)OC(C)(C)C)C(=O)OC(C)(C)C`, for which the AC50 in assay [9] is 7.6 µM (active).

Regarding `O=C(NCc1cc(C(F)(F)F)cc(C(F)(F)F)c1)C1CC(c2cccc([N+](=O)[O-])c2)=NO1` (stereo not drawn), the EC50 in assay [2] is 38.4 µM (active).

For the compound `Cc1ccc(OC(=O)c2ccc3nc(C)sc3c2)cc1`, the EC50 in assay [3] was 0.737 µM (active).

Consider `COc1ccc(N2CCN(C(CNS(=O)(=O)c3cccs3)c3cccnc3)CC2)cc1` (stereo not drawn), for which the IC50 in assay [10] is 120 µM (active).

Turning to `COCCN(CCOC)c1nc(-c2ccc(C)cc2)nc2ccccc12`, the EC50 in [2] was > 260 µM (inactive).

Turning to `CCC(=O)N1N/C(=C2/C(=O)NC(=O)N(CCc3ccccc3)C2=O)CC1c1ccc(OC)c(OC)c1` (stereo not drawn), the values for the EC50 in assay [4] and in assay [5] were 1.4 µM (active) and 26.4 µM (active), respectively.

`O=C(c1ccc(Cl)c(S(=O)(=O)N2CCCCCC2)c1)N1CCN(c2ccc(O)cc2)CC1`: in assay [10], the IC50 is 33.7 µM (active).

On to `Cc1ccccc1N1CCN(S(=O)(=O)Cc2ccccc2)CC1`, for which, in assay [2], the EC50 is > 260 µM (inactive).

Turning to `CCOC(=O)C1(CC2CCCCO2)CCN(Cc2nc3ccccc3[nH]2)CC1` (stereo not drawn), the EC50 in assay [3] is > 195 µM (not active).

As to `CC(C)N1CCC(N2CCN(C3CCCC3)CC2CCO)CC1` (stereo not drawn), in assay [3], the EC50 is > 195 µM (not active).

Take `O=[N+]([O-])c1cccc(-c2ncc3ccccn23)c1`: in assay [2], the EC50 was > 260 µM (inactive).

Take `CCN(C(=O)c1ccc2c(SCC(=O)O)c3c(nc2c1)CCC3)c1cc(Cl)ccc1OC`: in assay [3], the EC50 was > 195 µM (not active).

As to `Cn1c(N)c(-c2ccccc2)c2ccc([N+](=O)[O-])cc2c1=O`, in assay [6], the EC50 is 4.5 µM (active).

With `O=C(O)c1ccn(Cn2cnc3ccccc32)n1`, the EC50 in assay [3] is reported as > 195 µM (not active).

Consider `OCC1(CCCc2ccccc2)CCN(C2CCSCC2)CC1`, for which, in assay [2], the EC50 was > 260 µM (inactive).

In the case of `COc1cc(CNc2ncnc3c2ncn3[C@H]2CN(Cc3ccc(-c4ccccc4)cc3)C[C@@H](CO)O2)cc(OC)c1OC`, the AC50 in assay [9] is 7.36 µM (active).

Consider `CCOc1cc(C=NNC(=O)CCCC(=O)NN=Cc2ccc(O)c(OCC)c2)ccc1O`, for which the IC50 in [10] was 50.4 µM (active).

Turning to `CC12CCC3C(CC=C4CC(O)CCC43C)C1C/C(=C\N1CCCC1)C2=O` (stereo not drawn), the EC50 in assay [2] is > 260 µM (inactive).

With `Cn1cccc1/C=N/N1CCN(Cc2ccccc2Cl)CC1`, the 50% inhibitory concentration (IC50) in assay [10] was 82.1 µM (active).

With `C[C@@H]1CN([C@H](C)CO)C(=O)Cc2cc(NC(=O)Nc3ccc(F)cc3)ccc2O[C@H]1CN(C)C(=O)Nc1ccc(C(F)(F)F)cc1`, in assay [9], the half-maximal activity concentration (AC50) was 11.4 µM (active).

Turning to `O=C(Cc1ccccn1)N1CCCCN2[C@@H](CO)[C@@H](c3ccc(-c4ccc(F)cc4)cc3)[C@@H]2C1`, in assay [9], the AC50 is 22.6 µM (active).

`COc1cc(/C=N\NC(=O)c2ccc(-c3ccccc3)cc2)cc(OC)c1OC(C)=O`: the half-maximal activity concentration (AC50) in assay [9] is 0.728 µM (active).

The values are drawn from ChEMBL document CHEMBL1201862, “PubChem BioAssay data set” (2004).
